Data set [1] in a line: Oral clearance of SPP100 following single oral dose of SPP100 150 mg capsule studied in healthy human. In kind it is ADME, organism-based. The note with it: plasma.
For data set [2], the target named is CYP2C9 (Homo sapiens, UniProt P11712). As to the kind of experiment: Inhibitory activity of 200 uM SPP100 on 222 Pmoles of cDNA-derived CYP2C9 enzyme in microsome prepared from human lymphoblastoid cell line. Type of data set: ADME, microsomes. Further details: conc 200 uM, interact cpd conc 6 uM. As to conditions: probe diclofenac.
Data set [3] can be described thus: % SPP100 recovered of receiver rat following duodenal infusion of radioactivity through bile from donor rat treated with single intravenous administration of 10 mg.Kg-1 [14C] aliskiren hemifumarate. In kind it is ADME, organism-based, HAN:WIST(SPF). As to conditions: in vivo.
The nature of data set [4]: % of radioactivity recovered as aliskiren in urine following oral administration of [14C] aliskiren hemifumarate at 100 mg.Kg-1 level in rat. As to conditions: in vivo. In kind it is ADME, organism-based, Albino HAN:WIST.
Data set [5] in a line: Apparent terminal half-life (0-168h) of total radioactivity following single oral administration of [14C] aliskiren hemifumarate at 3 mg.Kg-1 level in marmoset. In kind it is ADME, organism-based, Callithrix jacchus, Plasma. The note with it: in vivo.
Data set [6] in a line: Excretion (0-168h) of radioactivity in faeces following intravenous administration of [14C] aliskiren hemifumarate at 1 mg.Kg-1 level in marmoset. Type of data set: ADME, organism-based, Callithrix jacchus, Feces. The note with it: in vivo.
Data set [7] can be described thus: Total excretion of radioactivity following oral administration of [14C] aliskiren hemifumarate at 3 mg.Kg-1 level in marmoset. Type of data set: ADME, organism-based, Callithrix jacchus, Urine/Feces. The note with it: in vivo.
Data set [8] can be described thus: Excretion (24h) of radioactivity in faeces following oral administration of [14C] aliskiren hemifumarate at 100 mg.Kg-1 level in rat. The note with it: in vivo. Type of data set: ADME, organism-based, Lister-Hooded, Feces.
Data set [9] can be described thus: Biliary elimination of aliskiren following single oral dose of [14C] aliskiren hemifumarate at 500 mg.Kg-1 level in mouse. In kind it is ADME, organism-based, TgRasH2, Bile. As to conditions: in vivo.
Data set [10] can be described thus: Excretion of radioactivity (0-24h) in faeces following single intravenous dose of 10 mg.Kg-1 [14C] aliskiren hemifumarate in mouse. In kind it is ADME, organism-based, TgRasH2, Feces. The note with it: in vivo.
The nature of data set [11]: Mean excretion of radioactivity (48-72h) in urine and faeces following single intravenous dose of 10 mg.Kg-1 [14C] aliskiren hemifumarate in mouse. In kind it is ADME, organism-based, TgRasH2, Urine/Feces. As to conditions: in vivo.
A short description of data set [12]: Excretion of radioactivity (0-72h) in faeces following single intravenous dose of 10 mg.Kg-1 [14C] aliskiren hemifumarate in mouse. In kind it is ADME, organism-based, TgRasH2, Feces. As to conditions: in vivo.
Data set [13] in a line: % of radioactivity (48h) recovered in gastrointestinal tract of receiver rat following duodenal infusion of radioactivity through bile from donor rat treated with single intravenous administration of 10 mg.Kg-1 [14C] aliskiren hemifumarate. In kind it is ADME, organism-based, HAN:WIST(SPF). The note with it: in vivo.
Data set [14] in a line: % of radioactivity (48h) recovered in urine of receiver rat following duodenal infusion of radioactivity through bile from donor rat treated with single intravenous administration of 10 mg.Kg-1 [14C] aliskiren hemifumarate. In kind it is ADME, organism-based, HAN:WIST(SPF). The note with it: in vivo.
Data set [15] in a line: Elimination (0-96h) of radioactivity via biliary route following intravenous administration of [14C] aliskiren hemifumarate at 10 mg.Kg-1 level in rat. Type of data set: ADME, organism-based, Albino HAN:WIST, Bile. The note with it: in vivo.
The nature of data set [16]: Mean excretion of radioactivity (24-48h) in urine and faeces following single oral dose of 100 mg.Kg-1 [14C] aliskiren hemifumarate in rat. Type of data set: ADME, organism-based, Albino HAN:WIST, Urine/Feces. The note with it: in vivo.
The nature of data set [17]: Mean excretion of radioactivity (48-72h) in urine and faeces following single oral dose of 100 mg.Kg-1 [14C] aliskiren hemifumarate in rat. In kind it is ADME, organism-based, Albino HAN:WIST, Urine/Feces. As to conditions: in vivo.
Data set [18] can be described thus: Mean excretion of radioactivity (72-96h) in urine and faeces following single intravenous dose of 10 mg.Kg-1 [14C] aliskiren hemifumarate in rat. Type of data set: ADME, organism-based, Albino HAN:WIST, Urine/Feces. The note with it: in vivo.
Data set [19] in a line: Concentration of radioactivity in the brown fat following repeated oral administration of [14C] aliskiren hemifumarate at 100 mg.Kg-1 level studied at 24h after 10th dose in rat. Type of data set: ADME, organism-based, Albino HAN:WIST, Brown adipose tissue. As to conditions: in vivo.
A short description of data set [20]: Concentration of radioactivity in the kidney medulla following repeated oral administration of [14C] aliskiren hemifumarate at 100 mg.Kg-1 level studied at 24h after 3rd dose in rat. Type of data set: ADME, organism-based, Albino HAN:WIST, Renal medulla. As to conditions: in vivo.
Data set [21] in a line: AUC of aliskiren hemifumarate following 8 day once-daily dosing of SPP100B oral solution at 160 mg level studied on day 8 in men. Type of data set: ADME, organism-based. The note with it: male, human, plasma.
Data set [22] can be described thus: Tmax (0-96h) of unlabeled aliskiren hemifumarate following intravenous administration of aliskiren hemifumarate at 10 mg.Kg-1 level in rat. In kind it is ADME, organism-based. As to conditions: Albino HAN:WIST, plasma.
A short description of data set [23]: Effect of 2 week oral dosing of aliskiren hemifumarate at 100 mg.Kg-1 level on hematological parameter values in male Callithrix jacchus. As to conditions: marmoset, in vivo, 336 h. Type of data set: toxicity, organism-based, Plasma.
Data set [24] in a line: Effect of 2 week oral dosing of aliskiren hemifumarate at 10 mg.Kg-1 level on hematological parameter values in female Callithrix jacchus. Type of data set: toxicity, organism-based, Plasma. As to conditions: marmoset, in vivo, 336 h.
Data set [25] is described as follows: Effect of 2 week oral dosing of aliskiren hemifumarate at 50 mg.Kg-1 level on blood urea nitrogen level in female Callithrix jacchus. In kind it is toxicity, organism-based, Plasma. The note with it: marmoset, 336 h.
Data set [26] in a line: Effect of 2 week oral dosing of aliskiren hemifumarate at 100 mg.Kg-1 level on plasma magnesium level in female Callithrix jacchus. As to conditions: marmoset, 336 h. In kind it is toxicity, organism-based.
The nature of data set [27]: Cmax of aliskiren hemifumarate following 2 week oral dosing of aliskiren hemifumarate at 50 mg.Kg-1 level studied on day 1 in male Callithrix jacchus. Type of data set: ADME, organism-based. The note with it: marmoset, plasma.
Data set [28] can be described thus: Cmaxspec of aliskiren hemifumarate following 2 week oral dosing of aliskiren hemifumarate at 10 mg.Kg-1 level studied on day 1 in male Callithrix jacchus. The note with it: marmoset, in vivo, 336 h. In kind it is ADME, organism-based, Plasma.
The nature of data set [29]: Effect of 4 week oral dietary dosing of aliskiren hemifumarate at 1500 mg.Kg-1 level on spermatogenesis in male mouse. Type of data set: toxicity, organism-based, CB6F1-TGrasH2, Testis. As to conditions: in vivo, 672 h.
Data set [30] is described as follows: Absorption (0-96h) of unlabeled aliskiren hemifumarate following oral administration of aliskiren hemifumarate at 100 mg.Kg-1 level in rat. The note with it: Albino HAN:WIST, plasma, read-out: Absorption. Type of data set: ADME, organism-based.
Data set [31] can be described thus: AUC (0-24h) of aliskiren hemifumarate following 4 week oral dietary dosing of aliskiren hemifumarate at 2000 mg.Kg-1 level in female mouse. In kind it is ADME, organism-based. As to conditions: CB6F1-TGrasH2, mouse, plasma.
Data set [32] can be described thus: Tmax of aliskiren hemifumarate following 2 week oral dosing of aliskiren hemifumarate at 10 mg.Kg-1 level studied on day 1 in male Callithrix jacchus. In kind it is ADME, organism-based. As to conditions: marmoset, plasma.
Data set [33] is described as follows: Tmax of aliskiren hemifumarate following 2 week oral dosing of aliskiren hemifumarate at 100 mg.Kg-1 level studied on day 14 in male Callithrix jacchus. In kind it is ADME, organism-based. As to conditions: marmoset, plasma.
Data set [34] is described as follows: AUC (0-24h)/dose of aliskiren hemifumarate following 4 week oral dietary dosing of aliskiren hemifumarate at 2000 mg.Kg-1 level in male mouse. Type of data set: ADME, organism-based, CB6F1-TGrasH2, Plasma. The note with it: in vivo.
Data set [35] in a line: AUC (0-24h)/dose of aliskiren hemifumarate following 4 week oral dietary dosing of aliskiren hemifumarate at 500 mg.Kg-1 level in female mouse. In kind it is ADME, organism-based, CB6F1-TGrasH2, Plasma. The note with it: in vivo.
Data set [36] is described as follows: AUCspec of aliskiren hemifumarate following 2 week oral dosing of aliskiren hemifumarate at 10 mg.Kg-1 level studied on day 1 in female Callithrix jacchus. As to conditions: marmoset, in vivo, 336 h. Type of data set: ADME, organism-based, Plasma.
Data set [37] can be described thus: AUCss(tau)/dose of aliskiren hemifumarate following repeated oral administration of [14C] aliskiren hemifumarate at 100 mg.Kg-1 level studied in rat. In kind it is ADME, organism-based, Albino HAN:WIST, Plasma. As to conditions: in vivo.
Data set [38] in a line: Tmax (0-168h) of unlabeled aliskiren hemifumarate following single oral administration of aliskiren hemifumarate at 3 mg.Kg-1 level in marmoset. Type of data set: ADME, organism-based, Callithrix jacchus. As to conditions: plasma.
Data set [39] can be described thus: Cmax (0-168h) of unlabeled aliskiren hemifumarate following single oral administration of aliskiren hemifumarate at 3 mg.Kg-1 level in marmoset. In kind it is ADME, organism-based, Callithrix jacchus, Plasma. As to conditions: in vivo.
The nature of data set [40]: AUC/dose (0-168h) of unlabeled aliskiren hemifumarate following single oral administration of aliskiren hemifumarate at 3 mg.Kg-1 level in marmoset. Type of data set: ADME, organism-based, Callithrix jacchus, Plasma. As to conditions: in vivo.

The results in this text go back to ChEMBL document CHEMBL3508693 (2016).

Molecules are shown by their SMILES.

Chain of CYP2C9 (P11712 whole entry, the tested form may be a part): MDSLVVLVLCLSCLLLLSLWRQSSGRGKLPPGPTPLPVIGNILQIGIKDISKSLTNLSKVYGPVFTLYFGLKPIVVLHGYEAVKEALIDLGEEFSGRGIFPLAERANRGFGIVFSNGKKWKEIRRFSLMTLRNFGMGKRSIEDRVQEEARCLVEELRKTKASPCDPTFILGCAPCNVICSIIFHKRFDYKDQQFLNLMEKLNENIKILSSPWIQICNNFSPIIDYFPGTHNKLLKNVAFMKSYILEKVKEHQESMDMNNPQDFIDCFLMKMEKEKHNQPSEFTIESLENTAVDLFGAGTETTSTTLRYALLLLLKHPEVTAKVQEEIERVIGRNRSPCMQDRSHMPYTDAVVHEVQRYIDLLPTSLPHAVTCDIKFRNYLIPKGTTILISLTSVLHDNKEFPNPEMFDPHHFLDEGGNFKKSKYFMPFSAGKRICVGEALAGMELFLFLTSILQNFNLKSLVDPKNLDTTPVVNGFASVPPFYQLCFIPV

For `COCCCOc1cc(C[C@@H](C[C@H](N)[C@@H](O)C[C@H](C(=O)NCC(C)(C)C(N)=O)C(C)C)C(C)C)ccc1OC`, the CL/F in [1] was 5350 mL/min. This compound gave an inhibition at 200 µM in [2] of 14.9%. Also, the Compound recovery in data set [3] is 60.4%; in data set [4], “<= 2%”.
Take `COCCCOc1cc(C[C@@H](C[C@H](N)[C@@H](O)C[C@H](C(=O)NCC([14CH3])([14CH3])C(N)=O)C(C)C)C(C)C)ccc1OC.O=C(O)/C=C/C(=O)O`: the t1/2 in [5] is recorded as 45.5 h. For the same compound, the Radiolabel recovery in data set [6] was 72%; in data set [7], 104%; in data set [8] it was 86%; in data set [9] it was “OUTCOME = Observed, VALUE = Elimination of aliskiren occurred mainly via the biliary or faecal route”; in [10], 84.68%; in data set [11] it was 0.9%. Further, the Radiolabel recovery in data set [12] is on record as 91.1%; in data set [13], 59.8%; in [14] it was 0.6%; in data set [15] it was “OUTCOME = Observed/Elimination of radioactivity was mainly via biliary route”; in [16] it was 40.2%; in data set [17] it was 16.3%. For the same compound, the Radiolabel recovery in data set [18] is listed as 2.24%; in [19] it was “OUTCOME = Detected”; in data set [20] it was “OUTCOME = Detected”.
On to `COCCCOc1cc(C[C@@H](C[C@H](N)[C@@H](O)C[C@H](C(=O)NCC(C)(C)C(N)=O)C(C)C)C(C)C)ccc1OC.COCCCOc1cc(C[C@@H](C[C@H](N)[C@@H](O)C[C@H](C(=O)NCC(C)(C)C(N)=O)C(C)C)C(C)C)ccc1OC.O=C(O)/C=C/C(=O)O` [ALISKIREN FUMARATE], for which the AUC at 192 h in data set [21] is 363 ng·h/mL. The Tmax in data set [22] worked out at 4.98 min; in data set [32] it was 1 h; in data set [33], 2 h; in [38], 2 h. Also, the Change in hematology entry in data set [23] and in data set [24] was “OUTCOME = Hematological parameter values did not differ from control values. No animals died during the study” each time. Besides, the BUN_CHANGE_BY in data set [25] came out at 274%. Also, in data set [26], the “Plasma magnesium_CHANGE_BY” value was found to be 130%. The Cmax was 6290 ng/mL in data set [27] and 395 nM in data set [39]. Moreover, the Cmax normalised in data set [28] was 0.396 (ug/ml)/(mg/kg). Also, the Change in spermatogenesis result in [29] was “OUTCOME = No abnormalities. No animals died during the study”. For the same compound, in data set [30], the Fa is no less than 3.4%. Further, in data set [31], the AUC(0-t) at 24 h turned out to be 11800 ng·h/mL. The AUC normalised is 3.86 ((ng/mL).hours)/(mg/kg/day) in [34], 1.71 ((ng/mL).hours)/(mg/kg/day) in data set [35], 2.13 ((ug.h.ml-1)/(mg/kg) in data set [36] and 1.52 (umol.h/L)/(mg/kg) in data set [40]. In addition, the “AUCss(tau) normalised” value in [37] is 10 (nmol.h.L-1)/(mg/kg).
